Laboratory results as given in ChEMBL document CHEMBL1201861, “Genomics of Drug Sensitity in Cancer screening data, Wellcome Trust Sanger Institute”.
pIC50: −log10 of the molar value.

Legend:
Assay in all cases: cells
[1] = tested on: NCI-H1650; assay type: functional, cell-based, Homo sapiens; conditions: Homo sapiens, NCI-H1650;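 also: growth inhibition of human NCI-H1650 cells measured by a cell viability assay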
Description: SANGER: Inhibition of human NCI-H1650 cell growth in a cell viability assay.

[2] = tested on: KP-N-YS; assay type: functional, cell-based, Homo sapiens; conditions: Homo sapiens, KP-N-YS;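 also: cell viability assay measuring inhibition of cell line growth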
Description: SANGER: Inhibition of human KP-N-YS cell growth in a cell viability assay.

[3] = tested on: KARPAS-45; assay type: functional, cell-based, Homo sapiens; conditions: Homo sapiens, KARPAS-45;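 also: inhibition of cell line growth, read out through a viability assay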
Description: SANGER: Inhibition of human KARPAS-45 cell growth in a cell viability assay.

[4] = tested on: NCI-H82; assay type: functional, cell-based, Homo sapiens; conditions: Homo sapiens, NCI-H82;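 also: growth inhibition of NCI-H82 cells, measured with a cell viability readout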
Description: SANGER: Inhibition of human NCI-H82 cell growth in a cell viability assay.

[5] = tested on: OCI-AML2; assay type: functional, cell-based, Homo sapiens; conditions: Homo sapiens, OCI-AML2;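 also: growth inhibition of OCI-AML2 cells, read out with a cell viability assay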
Description: SANGER: Inhibition of human OCI-AML2 cell growth in a cell viability assay.

[6] = tested on: CW-2; assay type: functional, cell-based, Homo sapiens; conditions: Homo sapiens, CW-2;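 also: growth inhibition of CW-2 cells, read out by a cell viability assay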
Description: SANGER: Inhibition of human CW-2 cell growth in a cell viability assay.

[7] = tested on: BB30-HNC; assay type: functional, cell-based, Homo sapiens; conditions: Homo sapiens, BB30-HNC;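 also: growth inhibition of the cultured cell line, read out by a cell viability assay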
Description: SANGER: Inhibition of human BB30-HNC cell growth in a cell viability assay.

[8] = tested on: NH-12; assay type: functional, cell-based, Homo sapiens; conditions: Homo sapiens, NH-12;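 also: growth inhibition of NH-12 cells, read out with a cell viability assay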
Description: SANGER: Inhibition of human NH-12 cell growth in a cell viability assay.

[9] = tested on: L-428; assay type: functional, cell-based, Homo sapiens; conditions: Homo sapiens, L-428
Description: SANGER: Inhibition of human L-428 cell growth in a cell viability assay.

[10] = tested on: NCI-H209; assay type: functional, cell-based, Homo sapiens; conditions: Homo sapiens, NCI-H209;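 also: growth inhibition of human NCI-H209 cells, measured by a cell viability assay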
Description: SANGER: Inhibition of human NCI-H209 cell growth in a cell viability assay.

[11] = tested on: KINGS-1; assay type: functional, cell-based, Homo sapiens; conditions: Homo sapiens, KINGS-1;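 also: cell viability assay measuring suppression of KINGS-1 cell growth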
Description: SANGER: Inhibition of human KINGS-1 cell growth in a cell viability assay.

[12] = tested on: TGBC1TKB; assay type: functional, cell-based, Homo sapiens; conditions: Homo sapiens, TGBC1TKB;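 also: growth inhibition of TGBC1TKB cells, read out by a cell viability assay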
Description: SANGER: Inhibition of human TGBC1TKB cell growth in a cell viability assay.

[13] = tested on: UACC-257; assay type: functional, cell-based, Homo sapiens; conditions: Homo sapiens, UACC-257
Description: SANGER: Inhibition of human UACC-257 cell growth in a cell viability assay.

[14] = tested on: NCI-H510A; assay type: functional, cell-based, Homo sapiens; conditions: Homo sapiens, NCI-H510A;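 also: growth inhibition of NCI-H510A cells, read out with a cell viability assay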
Description: SANGER: Inhibition of human NCI-H510A cell growth in a cell viability assay.

[15] = tested on: EW-1; assay type: functional, cell-based, Homo sapiens; conditions: Homo sapiens, EW-1;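 also: growth inhibition of the human EW-1 cell line, read out by a cell viability assay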
Description: SANGER: Inhibition of human EW-1 cell growth in a cell viability assay.

[16] = tested on: MN-60; assay type: functional, cell-based, Homo sapiens; conditions: Homo sapiens, MN-60;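 also: growth inhibition of the MN-60 cell line, determined with a cell viability assay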
Description: SANGER: Inhibition of human MN-60 cell growth in a cell viability assay.

[17] = tested on: A3-KAW; assay type: functional, cell-based, Homo sapiens; conditions: Homo sapiens, A3-KAW;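 also: growth inhibition of human A3-KAW cells, read out with a cell viability assay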
Description: SANGER: Inhibition of human A3-KAW cell growth in a cell viability assay.

[18] = tested on: LOX IMVI; assay type: functional, cell-based, Homo sapiens; conditions: Homo sapiens, LOX IMVI
Description: SANGER: Inhibition of human LOXIMVI cell growth in a cell viability assay.

[19] = tested on: GOTO; assay type: functional, cell-based, Homo sapiens; conditions: Homo sapiens, GOTO;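 also: growth inhibition of GOTO cells, read out by a cell viability assay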
Description: SANGER: Inhibition of human GOTO cell growth in a cell viability assay.

[20] = tested on: GI-1; assay type: functional, cell-based, Homo sapiens; conditions: Homo sapiens, GI-1;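 also: growth inhibition of human GI-1 cells, measured with a cell viability readout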
Description: SANGER: Inhibition of human GI-1 cell growth in a cell viability assay.

[21] = tested on: DEL; assay type: functional, cell-based, Homo sapiens; conditions: Homo sapiens, DEL;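 also: growth inhibition of the human DEL cell line, read out with a cell viability assay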
Description: SANGER: Inhibition of human DEL cell growth in a cell viability assay.

[22] = tested on: SBC-1; assay type: functional, cell-based, Homo sapiens; conditions: Homo sapiens, SBC-1;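 also: cell viability assay measuring growth inhibition of the SBC-1 cell line, IC50 being the concentration that halves growth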
Description: SANGER: Inhibition of human SBC-1 cell growth in a cell viability assay.

[23] = tested on: DSH1; assay type: functional, cell-based, Homo sapiens; conditions: Homo sapiens, DSH1;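 also: growth inhibition of human DSH1 cells, measured with a cell viability readout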
Description: SANGER: Inhibition of human DSH1 cell growth in a cell viability assay.

[24] = tested on: NCI-H1299; assay type: functional, cell-based, Homo sapiens; conditions: Homo sapiens, NCI-H1299;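 also: growth inhibition of human NCI-H1299 cells, read out by a cell viability assay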
Description: SANGER: Inhibition of human NCI-H1299 cell growth in a cell viability assay.

[25] = tested on: GCIY; assay type: functional, cell-based, Homo sapiens; conditions: Homo sapiens, GCIY;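 also: growth inhibition of the human GCIY cell line, read out by a cell viability assay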
Description: SANGER: Inhibition of human GCIY cell growth in a cell viability assay.

[26] = tested on: EW-13; assay type: functional, cell-based, Homo sapiens; conditions: Homo sapiens, EW-13;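 also: growth inhibition of EW-13 cells, read out with a cell viability assay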
Description: SANGER: Inhibition of human EW-13 cell growth in a cell viability assay.

[27] = tested on: SK-MEL-2; assay type: functional, cell-based, Homo sapiens; conditions: Homo sapiens, SK-MEL-2;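 also: growth inhibition of human SK-MEL-2 cells measured with a cell viability assay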
Description: SANGER: Inhibition of human SK-MEL-2 cell growth in a cell viability assay.

[28] = tested on: GR-ST; assay type: functional, cell-based, Homo sapiens; conditions: Homo sapiens, GR-ST
Description: SANGER: Inhibition of human GR-ST cell growth in a cell viability assay.

[29] = tested on: Ramos-2G6-4C10; assay type: functional, cell-based, Homo sapiens; conditions: Homo sapiens, Ramos-2G6-4C10;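 also: growth inhibition of the cell line, measured by a cell viability read-out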
Description: SANGER: Inhibition of human Ramos-2G6-4C10 cell growth in a cell viability assay.

[30] = tested on: LAMA-84; assay type: functional, cell-based, Homo sapiens; conditions: Homo sapiens, LAMA-84;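 also: growth inhibition of LAMA-84 cells, read out with a cell viability assay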
Description: SANGER: Inhibition of human LAMA-84 cell growth in a cell viability assay.

[31] = tested on: A498; assay type: functional, cell-based, Homo sapiens; conditions: Homo sapiens, A498;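 also: growth inhibition of human A498 cells, read out with a cell viability assay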
Description: SANGER: Inhibition of human A498 cell growth in a cell viability assay.

[32] = tested on: NB13; assay type: functional, cell-based, Homo sapiens; conditions: Homo sapiens, NB13;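 also: cell viability readout measuring growth inhibition of human NB13 cells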
Description: SANGER: Inhibition of human NB13 cell growth in a cell viability assay.

[33] = tested on: QIMR-WIL; assay type: functional, cell-based, Homo sapiens; conditions: Homo sapiens, QIMR-WIL;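 also: growth inhibition of QIMR-WIL cells, read out with a cell viability assay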
Description: SANGER: Inhibition of human QIMR-WIL cell growth in a cell viability assay.

[34] = tested on: MLMA; assay type: functional, cell-based, Homo sapiens; conditions: Homo sapiens, MLMA;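 also: growth inhibition of MLMA cells (human), determined through a cell viability readout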
Description: SANGER: Inhibition of human MLMA cell growth in a cell viability assay.

[35] = tested on: DU-4475; assay type: functional, cell-based, Homo sapiens; conditions: Homo sapiens, DU-4475
Description: SANGER: Inhibition of human DU-4475 cell growth in a cell viability assay.

[36] = tested on: HCE-T; assay type: functional, cell-based, Homo sapiens; conditions: Homo sapiens, HCE-T;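 also: cell viability assay read-out, reporting inhibition of HCE-T cell growth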
Description: SANGER: Inhibition of human HCE-T cell growth in a cell viability assay.

[37] = tested on: GB-1; assay type: functional, cell-based, Homo sapiens; conditions: Homo sapiens, GB-1;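 also: growth of GB-1 cells judged by a viability assay, IC50 marks the concentration inhibiting growth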
Description: SANGER: Inhibition of human GB-1 cell growth in a cell viability assay.

[38] = tested on: no-10; assay type: functional, cell-based, Homo sapiens; conditions: Homo sapiens;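 also: growth inhibition of no-10 cells, read out with a cell viability assay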
Description: SANGER: Inhibition of human no-10 cell growth in a cell viability assay.

[39] = tested on: OVCAR-4; assay type: functional, cell-based, Homo sapiens; conditions: Homo sapiens, OVCAR-4;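 also: growth inhibition of human OVCAR-4 cells, measured with a cell viability assay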
Description: SANGER: Inhibition of human OVCAR-4 cell growth in a cell viability assay.

[40] = tested on: IA-LM; assay type: functional, cell-based, Homo sapiens; conditions: Homo sapiens, IA-LM;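 also: cell viability assay measuring growth inhibition of human IA-LM cells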
Description: SANGER: Inhibition of human IA-LM cell growth in a cell viability assay.

[41] = tested on: U-266; assay type: functional, cell-based, Homo sapiens; conditions: Homo sapiens, U-266
Description: SANGER: Inhibition of human U-266 cell growth in a cell viability assay.

[42] = tested on: Lu-65; assay type: functional, cell-based, Homo sapiens; conditions: Homo sapiens, Lu-65;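 also: growth inhibition of Lu-65 cancer cells, read out by a cell viability assay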
Description: SANGER: Inhibition of human LU-65 cell growth in a cell viability assay.

[43] = tested on: SK-NEP-1; assay type: functional, cell-based, Homo sapiens; conditions: Homo sapiens, SK-NEP-1;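 also: growth inhibition of human SK-NEP-1 cells, read out by a cell viability assay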
Description: SANGER: Inhibition of human SK-NEP-1 cell growth in a cell viability assay.

[44] = tested on: TE-1; assay type: functional, cell-based, Homo sapiens; conditions: Homo sapiens, TE-1;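 also: growth inhibition of the human TE-1 cell line, read out with a cell viability assay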
Description: SANGER: Inhibition of human TE-1 cell growth in a cell viability assay.

[45] = tested on: MZ1-PC; assay type: functional, cell-based, Homo sapiens; conditions: Homo sapiens, MZ1-PC;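 also: cell viability assay measuring growth inhibition of human MZ1-PC cells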
Description: SANGER: Inhibition of human MZ1-PC cell growth in a cell viability assay.

[46] = tested on: SF-539; assay type: functional, cell-based, Homo sapiens; conditions: Homo sapiens, SF-539;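 also: Read-out is a cell viability assay, with IC50 reflecting inhibition of cell growth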
Description: SANGER: Inhibition of human SF539 cell growth in a cell viability assay.

[47] = tested on: SHP77; assay type: functional, cell-based, Homo sapiens, SHP-77; conditions: Homo sapiens, SHP77;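 also: growth inhibition of human SHP-77 cells measured by a cell viability assay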
Description: SANGER: Inhibition of human SHP-77 cell growth in a cell viability assay.

[48] = tested on: KG-1; assay type: functional, cell-based, Homo sapiens; conditions: Homo sapiens, KG-1;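 also: growth inhibition of KG-1 cells, read out by a cell viability assay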
Description: SANGER: Inhibition of human KG-1 cell growth in a cell viability assay.

[49] = tested on: DMS-114; assay type: functional, cell-based, Homo sapiens; conditions: Homo sapiens, DMS-114

Oc1ccc2ccccc2c1SSc1c(O)ccc2ccccc12
pIC50 [1]: < 4.49
pIC50 [2]: < 4.49
pIC50 [3]: 4.89
pIC50 [4]: < 4.49
pIC50 [5]: 5.09
pIC50 [6]: < 4.49
pIC50 [7]: < 4.49
pIC50 [8]: 5.29
pIC50 [9]: < 4.49
pIC50 [10]: < 4.49
pIC50 [11]: < 4.49
pIC50 [12]: < 4.49
pIC50 [13]: < 4.49
pIC50 [14]: < 4.49
pIC50 [15]: 4.85
pIC50 [16]: < 4.49
pIC50 [17]: < 4.49
pIC50 [18]: < 4.49
pIC50 [19]: < 4.49
pIC50 [20]: < 4.49
pIC50 [21]: 5.02
pIC50 [22]: < 4.49
pIC50 [23]: < 4.49
pIC50 [24]: < 4.49
pIC50 [25]: < 4.49
pIC50 [26]: 5.38
pIC50 [27]: < 4.49
pIC50 [28]: 4.96
pIC50 [29]: < 4.49
pIC50 [30]: < 4.49
pIC50 [31]: < 4.49
pIC50 [32]: 5.37
pIC50 [33]: 5.54
pIC50 [34]: 4.53
pIC50 [35]: < 4.49
pIC50 [36]: < 4.49
pIC50 [37]: 5.58
pIC50 [38]: < 4.49
pIC50 [39]: < 4.49
pIC50 [40]: < 4.49
pIC50 [41]: < 4.49
pIC50 [42]: < 4.49
pIC50 [43]: < 4.49
pIC50 [44]: < 4.49
pIC50 [45]: < 4.49
pIC50 [46]: < 4.49
pIC50 [47]: < 4.49
pIC50 [48]: < 4.49
pIC50 [49]: < 4.49

CCC/C=C/C=C/C(=O)O[C@H]1/C(=C/C(=O)OC)C[C@H]2C[C@H]([C@@H](C)O)OC(=O)C[C@H](O)C[C@@H]3C[C@H](OC(C)=O)C(C)(C)[C@](O)(C[C@@H]4C/C(=C/C(=O)OC)C[C@H](/C=C/C(C)(C)[C@]1(O)O2)O4)O3 [BRYOSTATIN 1]
pIC50 [1]: < 8.10
pIC50 [2]: < 8.10
pIC50 [3]: < 8.10
pIC50 [4]: < 8.10
pIC50 [5]: < 8.10
pIC50 [6]: < 8.10
pIC50 [7]: < 8.10
pIC50 [8]: < 8.10
pIC50 [9]: < 8.10
pIC50 [10]: < 8.10
pIC50 [11]: < 8.10
pIC50 [12]: < 8.10
pIC50 [13]: < 8.10
pIC50 [14]: < 8.10
pIC50 [15]: < 8.10
pIC50 [16]: < 8.10
pIC50 [17]: < 8.10
pIC50 [18]: < 8.10
pIC50 [19]: < 8.10
pIC50 [20]: < 8.10
pIC50 [21]: < 8.10
pIC50 [22]: < 8.10
pIC50 [23]: < 8.10
pIC50 [24]: < 8.10
pIC50 [25]: < 8.10
pIC50 [26]: < 8.10
pIC50 [27]: < 8.10
pIC50 [28]: < 8.10
pIC50 [29]: < 8.10
pIC50 [30]: < 8.10
pIC50 [31]: < 8.10
pIC50 [32]: < 8.10
pIC50 [33]: < 8.10
pIC50 [34]: < 8.10
pIC50 [35]: < 8.10
pIC50 [36]: < 8.10
pIC50 [37]: < 8.10
pIC50 [38]: < 8.10
pIC50 [39]: < 8.10
pIC50 [40]: < 8.10
pIC50 [41]: < 8.10
pIC50 [42]: < 8.10
pIC50 [43]: < 8.10
pIC50 [44]: < 8.10
pIC50 [45]: < 8.10
pIC50 [46]: < 8.10
pIC50 [47]: < 8.10
pIC50 [48]: < 8.10
pIC50 [49]: < 8.10

CS(=O)(=O)c1ccc(C(=O)Nc2ccc(Cl)c(-c3ccccn3)c2)c(Cl)c1 [VISMODEGIB]
pIC50 [1]: < 5.00
pIC50 [2]: < 5.00
pIC50 [3]: < 5.00
pIC50 [4]: < 5.00
pIC50 [5]: < 5.00
pIC50 [6]: < 5.00
pIC50 [7]: < 5.00
pIC50 [8]: < 5.00
pIC50 [9]: < 5.00
pIC50 [10]: < 5.00
pIC50 [11]: < 5.00
pIC50 [12]: < 5.00
pIC50 [13]: < 5.00
pIC50 [14]: < 5.00
pIC50 [15]: < 5.00
pIC50 [16]: < 5.00
pIC50 [17]: < 5.00
pIC50 [18]: < 5.00
pIC50 [19]: < 5.00
pIC50 [20]: < 5.00
pIC50 [21]: < 5.00
pIC50 [22]: < 5.00
pIC50 [23]: < 5.00
pIC50 [24]: < 5.00
pIC50 [25]: < 5.00
pIC50 [26]: < 5.00
pIC50 [27]: < 5.00
pIC50 [28]: < 5.00
pIC50 [29]: < 5.00
pIC50 [30]: < 5.00
pIC50 [31]: < 5.00
pIC50 [32]: < 5.00
pIC50 [33]: < 5.00
pIC50 [34]: < 5.00
pIC50 [36]: 5.88
pIC50 [37]: < 5.00
pIC50 [38]: < 5.00
pIC50 [39]: < 5.00
pIC50 [40]: < 5.00
pIC50 [41]: < 5.00
pIC50 [42]: < 5.00
pIC50 [43]: < 5.00
pIC50 [44]: < 5.00
pIC50 [45]: < 5.00
pIC50 [46]: < 5.00
pIC50 [47]: < 5.00
pIC50 [48]: < 5.00
pIC50 [49]: < 5.00
